Values joined by “and” are separate entries in the source; they are usually repeats but may differ in a detail not shown here. Identical values can stand only once. Inconclusive results and toxic doses are left out. How the source made its calls: active means survival T/C of 150% or more; inactive means T/C below 125% in these data.
Tested on: BDF1 mice, P388 leukemia ip, median survival T/C
Test: NCI In Vivo Anticancer Drug Screen. Data for tumor model P388 Leukemia (intraperitoneal) in B6D2F1 (BDF1) mice
Settings: endpoint: median survival time, higher = longer survival
Method in brief: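 Survival ratio, drug arm over vehicle arm, in mice with a transplanted tumour.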

[1] = dose: 12.5 mg/kg/injection, schedule: Q01DX009 (ip), vehicle: saline with Tween-80
[2] = dose: 25.0 mg/kg/injection, schedule: Q01DX009 (ip), vehicle: saline with Tween-80
[3] = dose: 50.0 mg/kg/injection, schedule: Q01DX009 (ip), vehicle: saline with Tween-80
[4] = dose: 3.12 mg/kg/injection, schedule: Q01DX009 (ip), vehicle: saline
[5] = dose: 12.5 mg/kg/injection, schedule: Q01DX009 (ip), vehicle: saline
[6] = dose: 25.0 mg/kg/injection, schedule: Q01DX009 (ip), vehicle: saline
[7] = dose: 100.0 mg/kg/injection, schedule: Q01DX009 (ip), vehicle: saline with Tween-80
[8] = dose: 100.0 mg/kg/injection, schedule: Q04DX003 (ip), vehicle: saline with Tween-80
[9] = dose: 200.0 mg/kg/injection, schedule: Q01DX009 (ip), vehicle: saline with Tween-80
[10] = dose: 200.0 mg/kg/injection, schedule: Q04DX003 (ip), vehicle: saline with Tween-80
[11] = dose: 50.0 mg/kg/injection, schedule: Q01DX009 (ip), vehicle: saline
[12] = dose: 100.0 mg/kg/injection, schedule: Q01DX009 (ip), vehicle: Klucel (hydroxypropylcellulose) (HPC)
[13] = dose: 200.0 mg/kg/injection, schedule: Q01DX009 (ip), vehicle: Klucel (hydroxypropylcellulose) (HPC)
[14] = dose: 100.0 mg/kg/injection, schedule: Q04DX003 (ip), vehicle: Klucel (hydroxypropylcellulose) (HPC)
[15] = dose: 200.0 mg/kg/injection, schedule: Q04DX003 (ip), vehicle: Klucel (hydroxypropylcellulose) (HPC)
[16] = dose: 400.0 mg/kg/injection, schedule: Q04DX003 (ip), vehicle: Klucel (hydroxypropylcellulose) (HPC)

Measured: T/C

NC(=O)Oc1cc(OC(N)=O)cc(N(CCCl)CCCl)c1
active: [1] 158 % of control | [2] 181 % of control | dose: 25.0 mg/kg/injection, schedule: Q04DX003 (ip), vehicle: other 179 % of control | [3] 168 % of control | dose: 50.0 mg/kg/injection, schedule: Q04DX003 (ip), vehicle: other 186 % of control | dose: 100.0 mg/kg/injection, schedule: Q04DX003 (ip), vehicle: other 216 % of control

CC(=O)OC1C=CCC2C(=O)C34CC=CC(OC(C)=O)C3(C(=O)c3ccccc3C4=O)C(=O)C12 (stereo unspecified)
inactive: [4] 95 % of control | [5] 95 % of control | [6] 114 % of control

CCCCCCCN(CCCCCCC)CC(O)c1cc2ccccc2c2cnccc12 (stereo unspecified)
inactive: dose: 75.0 mg/kg/injection, schedule: Q04DX003 (ip), vehicle: saline with Tween-80 104 % of control | dose: 150.0 mg/kg/injection, schedule: Q04DX003 (ip), vehicle: saline with Tween-80 113 % of control | dose: 300.0 mg/kg/injection, schedule: Q04DX003 (ip), vehicle: saline with Tween-80 95 % of control

CC1OC(Oc2c(-c3ccc(O)c(O)c3)oc3cc(O)cc(O)c3c2=O)C(O)C(O)C1O (stereo unspecified)
inactive: [7] 109 % of control | [8] 113 % of control | [9] 104 % of control | [10] 109 % of control | dose: 264.0 mg/kg/injection, schedule: Q04DX003 (ip), vehicle: saline with Tween-80 104 % of control | dose: 400.0 mg/kg/injection, schedule: Q01DX009 (ip), vehicle: saline with Tween-80 118 % of control | dose: 400.0 mg/kg/injection, schedule: Q04DX003 (ip), vehicle: saline with Tween-80 104 % of control | dose: 600.0 mg/kg/injection, schedule: Q04DX003 (ip), vehicle: saline with Tween-80 104 % of control

CC(C)CNC(=S)/N=C1\CCN(c2ccccc2)N1
inactive: dose: 4.5 mg/kg/injection, schedule: Q01DX009 (ip), vehicle: saline with Tween-80 118 % of control | dose: 9.0 mg/kg/injection, schedule: Q01DX009 (ip), vehicle: saline with Tween-80 86 % of control | dose: 18.0 mg/kg/injection, schedule: Q01DX009 (ip), vehicle: saline with Tween-80 92 % of control

N#CSCc1nc2ccc(Cl)cc2c(-c2ccccc2)[n+]1[O-]
inactive: [3] 100 % of control | [7] 114 % of control | [9] 114 % of control

COc1ccc(Cl)cc1NC(=O)NNC(=O)C(=O)Nc1ccc(F)cc1
inactive: dose: 50.0 mg/kg/injection, schedule: Q01DX005 (ip), vehicle: saline with Tween-80 91 % of control | dose: 100.0 mg/kg/injection, schedule: Q01DX005 (ip), vehicle: saline with Tween-80 91 % of control | dose: 200.0 mg/kg/injection, schedule: Q01DX005 (ip), vehicle: saline with Tween-80 100 % of control

CC(C)(C)N1CC1CN (stereo unspecified)
inactive: [11] 90 % of control | dose: 100.0 mg/kg/injection, schedule: Q01DX009 (ip), vehicle: saline 90 % of control | dose: 200.0 mg/kg/injection, schedule: Q01DX009 (ip), vehicle: saline 89 % of control | dose: 400.0 mg/kg/injection, schedule: Q01DX009 (ip), vehicle: saline 121 % of control

CCCCCCCCNc1ccccc1
inactive: dose: 100.0 mg/kg/injection, schedule: Q01DX001 (ip), vehicle: saline sonified 87 % of control | dose: 400.0 mg/kg/injection, schedule: Q01DX001 (ip), vehicle: saline sonified 91 % of control

CO[C@@]12[C@H](COC(N)=O)C3=C(C(=O)C(C)=C(N)C3=O)N1C[C@H]1[C@@H]2N1C(=O)[C@@H]1N2C(=O)[C@@H](NC(=O)Cc3ccccc3)[C@H]2SC1(C)C
active: [5] 151 % of control | [6] 160 % of control | [11] 210 % of control

CN(Cc1ccccc1)/N=N/c1nc[nH]c1C(N)=O
inactive: dose: 25.0 mg/kg/injection, schedule: Q01DX009 (ip), vehicle: Klucel (hydroxypropylcellulose) (HPC) 95 % of control | dose: 50.0 mg/kg/injection, schedule: Q01DX009 (ip), vehicle: Klucel (hydroxypropylcellulose) (HPC) 110 % of control | [12] 110 % of control | [13] 100 % of control

O=C1CCC(=O)N1C1c2ccccc2Oc2ccccc21
inactive: dose: 100.0 mg/kg/injection, schedule: Q01DX001 (ip), vehicle: other 90 % of control | dose: 200.0 mg/kg/injection, schedule: Q01DX001 (ip), vehicle: other 90 % of control | dose: 400.0 mg/kg/injection, schedule: Q01DX001 (ip), vehicle: other 113 % of control

Cc1cc(C)c(C)c(Br)c1
inactive: [3] 100 % of control | [7] 104 % of control

C(#CCN1CCCC1)CCCN1CCCC1
inactive: [2] 111 % of control | [3] 92 % of control | dose: 50.0 mg/kg/injection, schedule: Q04DX003 (ip), vehicle: saline with Tween-80 91 % of control | [7] 92 % of control | [8] 91 % of control

O=C1OI(OI2OC(=O)c3ccccc32)c2ccccc21 (tested in a mixture with another compound)
inactive: dose: 50.0 mg/kg/injection, schedule: Q01DX001 (ip), vehicle: saline with Tween-80 101 % of control | dose: 100.0 mg/kg/injection, schedule: Q01DX001 (ip), vehicle: saline with Tween-80 101 % of control and 103 % of control | dose: 200.0 mg/kg/injection, schedule: Q01DX001 (ip), vehicle: saline with Tween-80 108 % of control and 120 % of control | dose: 400.0 mg/kg/injection, schedule: Q01DX001 (ip), vehicle: saline with Tween-80 117 % of control and 124 % of control

CCCCCCCCCCSc1ncnc2nc[nH]c12
inactive: [3] 87 % of control | [8] 100 % of control | [9] 108 % of control | [10] 100 % of control

Cc1[nH]c(=O)[nH]c(=O)c1NCCO
inactive: dose: 50.0 mg/kg/injection, schedule: Q01DX009 (ip), vehicle: water 102 % of control | dose: 100.0 mg/kg/injection, schedule: Q01DX009 (ip), vehicle: water 109 % of control | dose: 200.0 mg/kg/injection, schedule: Q01DX009 (ip), vehicle: water 105 % of control | dose: 400.0 mg/kg/injection, schedule: Q01DX009 (ip), vehicle: water 112 % of control

CS(=O)(=O)OCCN1CCC2(CC1)SSC1(CCN(CCOS(C)(=O)=O)CC1)S2
inactive: [4] 95 % of control and 96 % of control | dose: 6.25 mg/kg/injection, schedule: Q01DX009 (ip), vehicle: saline 115 % of control | dose: 7.5 mg/kg/injection, schedule: Q04DX003 (ip), vehicle: saline 122 % of control | [5] 109 % of control and 115 % of control | dose: 12.5 mg/kg/injection, schedule: Q04DX003 (ip), vehicle: saline 122 % of control
active: dose: 10.0 mg/kg/injection, schedule: Q01DX009 (ip), vehicle: saline 154 % of control

CCc1ccc(O)c(C(=O)c2c[nH]c(=O)c(C(N)=O)c2)c1
inactive: dose: 50.0 mg/kg/injection, schedule: Q04DX002 (ip), vehicle: saline with Tween-80 103 % of control | dose: 100.0 mg/kg/injection, schedule: Q04DX002 (ip), vehicle: saline with Tween-80 94 % of control | dose: 200.0 mg/kg/injection, schedule: Q04DX002 (ip), vehicle: saline with Tween-80 99 % of control

CN=S(=O)(OCCCCOS(=O)(=NC)c1ccccc1)c1ccccc1 (stereo unspecified)
inactive: [1] 116 % of control

O=C(Cl)C1CC2c3ccccc3C1([N+](=O)[O-])c1ccccc12 (stereo unspecified)
inactive: [14] 104 % of control | [15] 100 % of control | [16] 113 % of control

C[n+]1c2ccccc2nc2c(N)cc(N)cc21
active: dose: 26.0 mg/kg/injection, schedule: Q01DX009 (ip), vehicle: saline with Tween-80 154 % of control | dose: 41.0 mg/kg/injection, schedule: Q01DX009 (ip), vehicle: saline with Tween-80 154 % of control | dose: 41.0 mg/kg/injection, schedule: Q01DX009 (ip), vehicle: water 185 % of control
inactive: dose: 4.8 mg/kg/injection, schedule: Q01DX009 (ip), vehicle: saline with Tween-80 115 % of control | dose: 7.3 mg/kg/injection, schedule: Q01DX009 (ip), vehicle: saline with Tween-80 115 % of control

C(=N\Nc1nc2ccccc2s1)/c1ccc(/C=N/Nc2nc3ccccc3s2)cc1
inactive: [12] 109 % of control | [14] 104 % of control | [13] 114 % of control | [15] 100 % of control | dose: 400.0 mg/kg/injection, schedule: Q01DX009 (ip), vehicle: Klucel (hydroxypropylcellulose) (HPC) 100 % of control | [16] 104 % of control

Cc1ccc(S(=O)(=O)OCC2C3CCC2C3)cc1 (stereo unspecified)
inactive: [3] 101 % of control | [7] 107 % of control | [9] 107 % of control

— PubChem BioAssay AID328 (DTP/NCI, 2004)
